{"source": "paper PMC12668289", "about": "(RSC Chemical Biology, 2025)", "key": {"[1]": {"system": "Pmluc-N230S", "assay": "Bioluminescence quantum yield measurement", "assay_type": "biochemical, Pyrocoelia miyako", "procedure": "(§1) 1.5 Bioluminescence characterizations\n(§2) Reactions of luciferases, including Photinus pyralis luciferase (Fluc), Phrixothrix hirtus luciferase (SLR), Pyrearinus termitilluminans […]\n(§3) mM D-LH 2 analogues, 3 mM ATP, 6 mM MgCl2, and 10 µM luciferase in 0.2 ml of 100 mM HEPES-NaOH pH 8.0. […]\n(§4) A reference light source was used for calibrating a sphere spectrometer equipped with a cooled CCD detector.\n(§5) The absolute responsivity of each luciferase-luciferin reaction was calculated based on a linear standardization between total photon flux measured using the sphere spectrometer equipped with a cooled CCD detector and relative count values measured by a luminometer. Total photons emitted from the bioluminescence reaction of each luciferase-luciferin pair were measured using a calibrated luminometer. A reaction containing 0.5-5 nM of each luciferin, 3 mM ATP, 3 mM MgCl2 in 100 mM Tris-HCl (total volume of 200 µl) was placed into the luminometer and background signals were recorded. The reaction was then initiated by adding 20 µl of 0.5 […]\n(§6) mM purified luciferases into the reaction tube and the bioluminescence signals were monitored until it decayed to the background level."}, "[2]": {"system": "Pmluc-N230S (HepG2)", "assay": "Sensitivity of live reporter cell detection (LOD of cell number)", "assay_type": "cell-based, human"}, "[3]": {"target": "T1, Fluc (Photinus pyralis, UniProt P08659)", "T1 sequence (P08659 whole entry)": "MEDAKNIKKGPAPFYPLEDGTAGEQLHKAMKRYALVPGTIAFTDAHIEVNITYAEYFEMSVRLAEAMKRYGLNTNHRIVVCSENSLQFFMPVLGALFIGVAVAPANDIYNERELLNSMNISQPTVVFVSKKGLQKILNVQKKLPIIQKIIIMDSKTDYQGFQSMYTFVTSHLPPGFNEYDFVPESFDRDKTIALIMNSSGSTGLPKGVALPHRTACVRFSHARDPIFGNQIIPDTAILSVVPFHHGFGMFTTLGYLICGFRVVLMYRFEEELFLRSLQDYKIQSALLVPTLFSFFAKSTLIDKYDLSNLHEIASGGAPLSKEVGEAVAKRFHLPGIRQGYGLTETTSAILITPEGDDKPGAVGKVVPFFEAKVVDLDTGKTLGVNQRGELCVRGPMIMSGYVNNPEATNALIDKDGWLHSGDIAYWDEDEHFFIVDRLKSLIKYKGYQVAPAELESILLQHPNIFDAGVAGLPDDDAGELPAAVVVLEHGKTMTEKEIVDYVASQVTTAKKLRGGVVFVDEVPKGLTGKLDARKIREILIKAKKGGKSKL", "assay": "Steady-state kinetics of luciferase reactions (luminometer)", "assay_type": "biochemical", "conditions": "pH 8.0, 25 °C", "procedure": "as §1, §2\n(§7) mM D-LH 2 analogues, 3 mM ATP, 6 mM MgCl2, and 10 µM luciferase in 0.2 ml of 100 mM HEPES-NaOH pH 8.0. The bioluminescence (BL) emission characteristics were recorded using a microplate reader in a BL mode (Thermo Scientific, Varioskan, LUX multimode). […]\nBL of the\nThe reactions were initiated by mixing 25 µl of premixed solution of luciferases/D-LH 2 analogues with 125 µl of 3 mM ATP and 6 mM MgCl2 in 100 mM HEPES-NaOH (pH 8.0). The light intensity (relative light unit, RLU) during 0-300 sec was then collected to represent the overall luciferase activity which was further used for calculating kinetic parameters from the Michaelis-Menten equation. […]"}, "[4]": {"assay": "Absorption and fluorescence spectra of luciferins", "assay_type": "physicochemical", "conditions": "100 mM HEPES pH 8.0, 25 °C", "procedure": "2.6 Spectra of firefly luciferins\nspectrophotometer (Agilent technologies, Cary 100 UV Vis, Cary Series UV-Vis Spectrophotometer).\nwere recorded by a microplate reader (Thermo Scientific, Varioskan, LUX multimode) in fluorescence mode. The reactions of D-LH 2 […]\nSupplementary Table S5. […]\n[e] ND denotes “not detectable”. […]"}, "[5]": {"system": "stably Fluc-expressing HepG2 cells", "assay": "Real-time BL monitoring of live cells", "assay_type": "cell-based, human", "conditions": "Fluc HepG2, 100 µM, monitored for 3 days"}, "[6]": {"target": "T1, Fluc", "assay": "Stopped-flow luminometry, single turnover light formation and decay", "assay_type": "biochemical", "procedure": "1.5 Bioluminescence characterizations […]\nOne syringe was filled with a solution of 50 µM Fluc, 3 mM ATP, and 6 mM\nin both syringes were mixed by a stopped-flow device and measured the light emission at 25 °C in triplicate. […]\n2.8 Investigation of bioluminescence kinetics using stopped-flow luminometry\nreactions were investigated using a stopped-flow spectrophotometer (employing a light-off mode for detecting the luminescence). One"}, "[7]": {"system": "Fluc (HepG2)", "assay": "Sensitivity of live reporter cell detection (LOD of cell number)", "assay_type": "cell-based, human", "conditions": "100 µM, 30 min"}, "[8]": {"system": "SLR (HepG2)", "assay": "Sensitivity of live reporter cell detection (LOD of cell number)", "assay_type": "cell-based, human"}, "[9]": {"target": "Fluc-ApCPP complex (Photinus pyralis, UniProt P08659)", "sequence (P08659 whole entry, one chain of several)": "as the sequence (P08659 whole entry) above", "assay": "biochemical", "assay_type": "binding", "conditions": "ITC, Fluc-ApCCP"}, "[10]": {"system": "SLR-expressing HeLa cells", "assay": "Real-time BL monitoring of live cells", "method": "plasmids and Lipofectamine 3000 were then combined and incubated for 30 minutes to allow formation of DNA and lipid complexes.\nThe DNA-lipid complexes were added directly to each well of the empty plate. 1.5 × 10⁵ cells (HepG2 and HeLa cells) were then suspended\nin 150 µL of DMEM supplemented with 10% FBS were added directly into the transfection mixture in each well. The plate was gently\nagitated to ensure even distribution and incubated at 37°C in a humidified 5% CO₂ incubator. The reporter cells obtained at this stage\nwere ready for further investigation of their bioluminescence with D-LH2 analogues.\n2c), 10% FBS and 25 mM HEPES-NaOH (pH 7.0) was added and the BL signals were monitored with F0 (no filter) and F2 (red filter, >620\nnm long-pass filter) by a luminometer (ATTO, Kronos HT, WSL-1563) and while maintaining the cells with 5% CO2 at 37 °C."}, "[11]": {"system": "Pmluc-N230S (HeLa)", "assay": "Sensitivity of live reporter cell detection (LOD of cell number)", "assay_type": "cell-based, human", "conditions": "Pmluc-N230S (HeLa)"}, "[12]": {"system": "Pmluc-WT", "assay": "BL emission spectra of luciferase-luciferin reactions", "assay_type": "biochemical, Pyrocoelia miyako", "conditions": "100 mM HEPES pH 8.0, 25 °C", "procedure": "as §1, §2, §7\n(§8) sphere-based multichannel spectrometer with a charge-coupled device (CCD) detector. […]"}, "[13]": {"system": "SLR (HeLa)", "assay": "Sensitivity of live reporter cell detection (LOD of cell number)", "assay_type": "cell-based, human"}, "[14]": {"system": "SLR", "assay": "BL emission spectra of luciferase-luciferin reactions", "assay_type": "biochemical, Phrixothrix hirtus", "conditions": "100 mM HEPES pH 8.0, 25 °C", "procedure": "as §1, §2, §7, §8"}, "[15]": {"target": "T1, Fluc", "assay": "biochemical", "assay_type": "binding", "conditions": "ITC"}, "[16]": {"target": "T2, Fluc-containing HEK293T crude lysate (Photinus pyralis, UniProt P08659, K549A/L550V/N119G/N50D/S548I)", "T2 construct": "expressed in transfected cells; host or cells: HEK293T, transient transfection with pGL4.13 [luc2/SV40]", "T2 sequence (P08659 whole entry N50D/N119G/S548I/K549A/L550V)": "as the sequence (P08659 whole entry) above, with N50D, N119G, S548I, K549A, L550V counted along it", "assay": "BL assay of crude lysate of HEK293T expressing Fluc", "assay_type": "cell-based", "conditions": "HEK293T crude lysate"}, "[17]": {"system": "SLR", "assay": "Bioluminescence quantum yield measurement", "assay_type": "biochemical, Phrixothrix hirtus", "procedure": "as §1, §2, §3, §4, §5, §6"}}, "note": "Where “and” joins values, the source holds several entries; their conditions need not be identical. Equal values may be shown once."}
{"smiles": "O=C(O)[C@H]1CSC(c2nc3ccc(O)cc3s2)=N1", "note": "[Compound 2a, D-luciferin, reference compound]", "values": [{"measurement": "Quantum yield", "setting": "[1]", "result": "0.16 and 0.160 ± 0.018"}, {"measurement": "Limit of detection (LOD), cells", "setting": "[2]; F0 (no filter)", "result": 2010, "unit": "cells"}, {"measurement": "Limit of detection (LOD), cells", "setting": "[2]; F2 (red filter)", "result": 1880, "unit": "cells"}, {"measurement": "appKm", "setting": "[3]", "result": 3.3, "unit": "µM"}, {"measurement": "Absorption (λmax)", "setting": "[4]", "result": 327, "unit": "nm"}, {"measurement": "Fluorescence (λem)", "setting": "[4]", "result": "543 nm and 523–560 nm"}, {"measurement": "Time at which the highest BL signals were achieved", "setting": "[5]", "result": 44, "unit": "h"}, {"measurement": "Observed rate constant (kobs) Light decay Faster phase", "setting": "[6]", "result": "1.57 and 1.57 ± 0.02 s^−1"}, {"measurement": "Observed rate constant (kobs) Light decay Slower phase", "setting": "[6]", "result": "0.29 and 0.29 ± 0.00 s^−1"}, {"measurement": "Observed rate constant (kobs) Light formation", "setting": "[6]", "result": "6.64 and 6.64 ± 0.05 s^−1"}, {"measurement": "Limit of detection (LOD), cells", "setting": "[7]; F0 (no filter)", "result": 601, "unit": "cells"}, {"measurement": "Limit of detection (LOD), cells", "setting": "[7]; F2 (red filter, >620 nm long-pass)", "result": 897, "unit": "cells"}, {"measurement": "Limit of detection (LOD), cells", "setting": "[8]; F0 (no filter)", "result": 802, "unit": "cells"}, {"measurement": "Limit of detection (LOD), cells", "setting": "[8]; F2 (red filter)", "result": 1071, "unit": "cells"}, {"measurement": "N site", "setting": "[9]", "result": 0.32}, {"measurement": "Time BL signals are prolonged before signal decreasing", "setting": "[10]", "result": "up to 10 h"}, {"measurement": "Limit of detection (LOD), cells", "setting": "[11]; F0 (no filter)", "result": 1428, "unit": "cells"}, {"measurement": "Limit of detection (LOD), cells", "setting": "[11]; F2 (red filter)", "result": 1185, "unit": "cells"}, {"measurement": "Bioluminescence wavelength (BLλ)", "setting": "[12]", "result": 554, "unit": "nm"}, {"measurement": "Limit of detection (LOD), cells", "setting": "[13]; F0 (no filter)", "result": 1352, "unit": "cells"}, {"measurement": "Limit of detection (LOD), cells", "setting": "[13]; F2 (red filter)", "result": 1268, "unit": "cells"}, {"measurement": "Bioluminescence wavelength (BLλ)", "setting": "[14]", "result": 625, "unit": "nm"}, {"measurement": "N site", "setting": "[15]", "result": 1.00}, {"measurement": "Limit of detection (LOD) of expressed Fluc in crude cell lysates", "setting": "[16]", "result": 51.6, "unit": "ng"}, {"measurement": "Quantum yield", "setting": "[17]", "result": "0.16 and 0.160 ± 0.005"}]}
